Marks after values point to notes of the source that are not given here.
Tests used:
Type in all cases: in vivo
female SD rat [1] = assay: Agonistic (estrogenic) activity: immature rat uterine weight (Example 1(2)); conditions: for Uterine weight / Ratio: substance alone; for Uterine weight: once a day for 3 days, mean ± standard error; for Ratio: uterine weight vs control group (100%), 3 days
Protocol: A 17-days old female SD rat (purchased from Japan SLC) was received together with its mother, weaned at 20 days of age, and subjected to experiments from the next day. Five ml per kg body weight of EGCG (Sigma) or bisphenol-A (hereinafter referred to as BisA, Tokyo Kasei Kogyo) suspended in peanut oil (Nacalai Tesque) was administered orally and forcibly. Peanut oil was administered to a control rat in a similar manner. Administration was carried out once a day for three successive days. The uterine removed 24 hours after the last administration was weighed. BisA or EGCG (80 or 800 mg/kg) was administered. […]

female SD rat [2] = assay: Antagonistic (anti-estrogenic) activity of EGCG against bisphenol-A, immature rat uterine weight (Example 1(3)); conditions: BisA 800 mg/kg + EGCG 800 mg/kg oral at the same time
Protocol: A 17-days old female SD rat (purchased from Japan SLC) was received together with its mother, weaned at 20 days of age, and subjected to experiments from the next day. Five ml per kg body weight of EGCG (Sigma) or bisphenol-A (hereinafter referred to as BisA, Tokyo Kasei Kogyo) suspended in peanut oil (Nacalai Tesque) was administered orally and forcibly. Peanut oil was administered to a control rat in a similar manner. Administration was carried out once a day for three successive days. The uterine removed 24 hours after the last administration was weighed. BisA (800 mg/kg) and EGCG (800 mg/kg) were administered at the same time.

female SD rat [3] = assay: Anti-estrogenic activity of solution of EGCG in ethanol against bisphenol-A, rat uterine weight (Example 2); conditions: for Uterine weight: 30 minutes before BisA; for Ratio: vs control (100%)
Protocol: A 17-days old female SD rat (purchased from Japan SLC) was received together with its mother, weaned at 20 days of age, and subjected to experiments from the next day. BisA was weighed such that it would be administered at 200 or 40 mg/kg and dissolved in a small volume of ethanol. Peanut oil was added thereto to result in a final ethanol concentration of 5%. The resulting mixture was orally administered for three successive days. The uterine removed on the next day was weighed. EGCG was dissolved by adding ethanol and water was then added thereto to adjust the final ethanol concentration to 10%. The solution was orally administered on the day before the administration of BisA and 30 minutes before each of the successive administrations of BisA.

female SD rat [4] = assay: Anti-estrogenic activity of solution of EGCG in ethanol against 4-nonylphenol, rat uterine weight (Example 3); conditions: NP 50 mg/kg oral + EGCG 200 mg/kg oral in 10% ethanol
Protocol: A 16-days old female SD rat (Japan SLC) was purchased together with its mother, weaned at 19 days of age, and subjected to experiments from the next day.
4-Nonylphenol (hereinafter referred to as NP) was weighed such that it would be administered at 50 mg/kg and diluted by adding peanut oil thereto. The resulting mixture was orally administered for three successive days. The uterine removed on the day after the third administration day was weighed. EGCG was dissolved by adding ethanol and water was then added thereto to adjust the final ethanol concentration to 10%. The solution was orally administered 90 minutes before the administration of NP.

female SD rat [5] = assay: Effect of ethanol concentration on anti-estrogenic activity of EGCG, rat uterine weight (Example 4); conditions: for Uterine weight: 90 minutes before BisA; for Ratio: vs control (100%)
Protocol: (§1) A 16-days old female SD rat (Japan SLC) was purchased together with its mother, weaned at 19 days of age, and subjected to experiments from the next day. BisA was weighed such that it would be administered at 40 mg/kg and dissolved in a small volume of ethanol. Peanut oil was added thereto to result in a final ethanol concentration of 5%. The resulting mixture was subcutaneously administered for three successive days. The uterine removed on the day after the third administration day was weighed. EGCG (200 mg/kg) was dissolved by adding ethanol and water was then added thereto to adjust the final ethanol concentration to 10, 5, 1, 0.5 or 0%. The solution was orally administered 90 minutes before the administration of BisA.

female SD rat [6] = assay: Anti-estrogenic activity of solution of EGCG in ethanol, subcutaneous BisA, rat uterine weight (Example 5); conditions: for Uterine weight / Ratio: 30 minutes before BisA; for Ratio: vs control (100%)
Protocol: as §1, with “10” for “10, 5, 1, 0.5”, “30” for “90”

female SD rat [7] = assay: Dose dependency of anti-estrogenic activity of solution of EGCG in ethanol, rat uterine weight (Example 6); conditions: for Uterine weight: 30 minutes before BisA; for Ratio: vs control (100%)
Protocol: as §1, with “subcutaneously or orally” for “subcutaneously”, “EGCG” for “EGCG (200 mg/kg)”, “10%.” for “10, 5, 1, 0.5 or 0%.”, “30” for “90”

[8] = BisA 40 mg/kg oral + EGCG 100 mg/kg oral in 10% ethanol
[9] = BisA 200 mg/kg oral + EGCG 100 mg/kg oral in 10% ethanol
[10] = BisA 200 mg/kg oral + EGCG 200 mg/kg oral in 10% ethanol
[11] = BisA 40 mg/kg s.c. + EGCG 200 mg/kg oral in 0 % ethanol
[12] = BisA 40 mg/kg s.c. + EGCG 200 mg/kg oral in 0.5% ethanol
[13] = BisA 40 mg/kg s.c. + EGCG 200 mg/kg oral in 1 % ethanol
[14] = BisA 40 mg/kg s.c. + EGCG 200 mg/kg oral in 5 % ethanol
[15] = BisA 40 mg/kg s.c. + EGCG 200 mg/kg oral in 10 % ethanol
[16] = BisA 40 mg/kg s.c. + EGCG 200 mg/kg oral in 0% ethanol
[17] = BisA 40 mg/kg s.c. + EGCG 200 mg/kg oral in 10% ethanol
[18] = BisA 40 mg/kg oral + EGCG 40 mg/kg oral in 10% ethanol
[19] = BisA 40 mg/kg subcutaneous + EGCG 40 mg/kg oral in 10% ethanol
[20] = BisA 40 mg/kg subcutaneous + EGCG 100 mg/kg oral in 10% ethanol

## O=C(O[C@@H]1Cc2c(O)cc(O)cc2O[C@@H]1c1cc(O)c(O)c(O)c1)c1cc(O)c(O)c(O)c1 [EGCG, epigallocatechin gallate]
Female SD rat [1]; EGCG alone, 80 or 800 mg/kg oral
  increased uterine weight (in words): did not result in increased uterine weight
Female SD rat [1]; 80 mg/kg oral in peanut oil
  Uterine weight: 42.2 ± 1.7 mg
Female SD rat [1]; 800 mg/kg oral in peanut oil
  Uterine weight: 39.3 ± 3.2 mg
Female SD rat [1]; 80 mg/kg oral
  Ratio: 104%
Female SD rat [1]; 800 mg/kg oral
  Ratio: 97%
Female SD rat [2]; in peanut oil, mean ± standard error
  Uterine weight: 43.0 ± 2.7 mg
Female SD rat [2]; vs control (100%)
  Ratio: 116%
Female SD rat [3]; [8]
  Uterine weight: 41.2 ± 2.2 mg
  Ratio: 95%
Female SD rat [3]; [9]
  Uterine weight: 47.4 ± 2.6 mg
  Ratio: 109%
Female SD rat [3]; [10]
  Uterine weight: 39.8 ± 4.5 mg
  Ratio: 92%
Female SD rat [4]; 90 minutes before NP
  Uterine weight: 33.7 ± 1.9 mg
Female SD rat [4]; vs control (100%)
  Ratio: 109%
Female SD rat [5]; [11]
  Uterine weight: 43.3 ± 1.8 mg
  Ratio: 161%
Female SD rat [5]; [12]
  Uterine weight: 40.9 ± 1.8 mg
  Ratio: 152%
Female SD rat [5]; [13]
  Uterine weight: 40.1 ± 2.0 mg
  Ratio: 149%
Female SD rat [5]; [14]
  Uterine weight: 37.6 ± 1.8 mg
  Ratio: 140%
Female SD rat [5]; [15]
  Uterine weight: 37.0 ± 1.3 mg
  Ratio: 138%
Female SD rat [6]; [16]
  Uterine weight: 50.9 ± 2.2 mg
  Ratio: 165%
Female SD rat [6]; [17]
  Uterine weight: 36.4 ± 1.4 mg
  Ratio: 118%
Female SD rat [6]; BisA 40 mg/kg s.c. + EGCG 200 mg/kg oral without ethanol
  suppression of the increase in uterine weight (in words): the increase was not suppressed
Female SD rat [7]; [18]
  Uterine weight: 34.8 ± 2.8 mg
  Ratio: 106%
Female SD rat [7]; [8]
  Uterine weight: 33.0 ± 4.4 mg
  Ratio: 101** %
Female SD rat [7]; [19]
  Uterine weight: 44.4 ± 1.5 mg
  Ratio: 136%
Female SD rat [7]; [20]
  Uterine weight: 39.6 ± 1.0 mg
  Ratio: 121*** %
